# Results: PubChem BioAssay (NCI)
# Values joined by “and” are separate entries in the source; they are usually repeats but may differ in a detail not shown here. Equal values may be shown once.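 All cell lines were grown in 96-well plates and treated with compound for 48 hours. Abbreviation: GI50, concentration required for 50% inhibition of growth. At the TGI there is no net growth.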
# Experiments:
# Assay in all cases: inhibition of tumour cell growth, NCI panel, 48 h
# [1] = tested on: CCRF-CEM leukemia
# [2] = tested on: SK-MEL-2 melanoma
# [3] = tested on: MALME-3M melanoma
# [4] = tested on: MDA-MB-231 breast
# [5] = tested on: HOP-92 NSCLC
# [6] = tested on: HL-60(TB) leukemia
# [7] = tested on: OVCAR-4 ovarian
# [8] = tested on: NCI-H460 lung
# [9] = tested on: SF-295 CNS
# [10] = tested on: HT29 colon
SMILES,GI50 [1] [µM],TGI [1] [µM],GI50 [2],TGI [2],GI50 [3],TGI [3],GI50 [4],TGI [4],GI50 [5],TGI [5],GI50 [6],TGI [6],GI50 [7],TGI [7] [µM],GI50 [8],TGI [8] [µM],GI50 [9],TGI [9],GI50 [10],TGI [10]
CCOC(=O)C#Cc1c(C(=O)OCC)nnn1Cc1ccc([N+](=O)[O-])cc1,1.26,5,13 µM,26.3 µM,1.99 µM,4.29 µM,3.25 µM,9.14 µM,2.22 µM,5.35 µM,1.62 µM,5.62 µM,2.54 µM,7.14,11.1 µM,28,18.9 µM,38.1 µM,–,–
CC1(C)NCCC[C@]2(C)[C@H]3CC[C@@H]4[C@H]5[C@H](C(=O)/C=C/c6ccccn6)CC[C@]5(CO)CC[C@@]4(C)[C@]3(C)CC[C@@H]12,2.71,11.4,2.49 µM,6.91 µM,1.77 µM,3.51 µM,2.29 µM,5.64 µM,1.99 µM,7.73 µM,1.84 µM,4.7 µM,3.51 µM,13,1.78 µM,3.49,1.82 µM,3.47 µM,2.85 µM,11.3 µM
CC([C@H]1CCC2C3CCC4C[C@@H](N)CC[C@]4(C)C3CC[C@@]21C)N(C)C (some centres not stated),6.69,23.3,8.45 µM,21.3 µM,1.88 µM,5.11 µM,5.72 µM,16.5 µM,4.53 µM,25.9 µM,5.55 µM,13.2 µM,9.12 µM,38.9,2.4 µM,6.04,6.46 µM,22.5 µM,1.29 µM,5.59 µM
Cc1cn2c(/C=N/N=C(N)N)c(-c3ccccn3)nc2s1,12.3,> 100,14 µM,48.1 µM,21.8 µM,44.4 µM,17.2 µM,39.6 µM,7.35 µM,16.9 µM,4.56 µM,> 100 µM,15.2 µM,40.1,14.9 µM,> 75.6,17.1 µM,37.1 µM,19.4 µM,> 92.8 µM
Oc1c(Cl)cc(Cl)cc1C(c1cc(Cl)cc(Cl)c1O)C(Cl)(Cl)Cl,2.86,24.8,2.72 µM,12 µM,2.8 µM,7.2 µM,1.59 µM,4.81 µM,1.52 µM,5.94 µM,3.25 µM,10.3 µM,3.21 µM,19,2.01 µM,9.38,1.35 µM,3.53 µM,3.03 µM,11.4 µM
COc1cc(C2=N/C(=C/c3cccs3)C(=O)O2)cc(OC)c1OC,–,> 100,–,> 100 µM,–,> 100 µM,–,> 100 µM,–,> 100 µM,–,> 100 µM,–,> 100,–,> 100,–,> 100 µM,–,> 100 µM
CCn1c(-c2nonc2N)nc2c(C#CC(C)(C)O)ncc(OC[C@H]3CCCNC3)c21,0.335,47.2,7.57 µM,23 µM,13.4 µM,30.1 µM,17.8 µM,55.6 µM,9.73 µM,36.8 µM,10.6 µM,32 µM,31.4 µM,92.2,10.6 µM,28.5,0.794 µM,22 µM,17.5 µM,51.5 µM
COc1cc(-c2csc(NC(=O)Nc3ccc(C(F)(F)F)cc3)n2)cc(OC)c1OC,3.49,18.9,2.43 µM,5.81 µM,1.85 µM,4.94 µM,1.55 µM,3.69 µM,1.61 µM,4.73 µM,3.75 µM,8.05 µM,2.02 µM,9.07,2.52 µM,7.01,1.66 µM,4.35 µM,2.39 µM,7.08 µM
Fc1cccc(-n2ccc(-c3ccccc3)nc2=S)c1,> 85.3,> 100,> 100 µM,> 100 µM,65.3 µM,> 100 µM,27.9 µM,> 100 µM,0.862 µM,41.6 µM,94 µM,> 100 µM,98.6 µM,> 100,> 100 µM,> 100,44.1 µM,> 82.6 µM,57.3 µM,> 100 µM
COc1cc2nccc(Oc3ccc(NC(=O)Nc4cc(C)on4)c(Cl)c3)c2cc1OC,3.1,> 100,3.56 µM and 3.33 µM,10.4 µM and > 10 µM,1.92 µM and 6.17 µM,8.17 µM and > 10 µM,2.18 µM and 2.42 µM,8.73 µM and > 10 µM,2.58 µM and 0.911 µM,6.27 µM and 3.44 µM,3.35 µM and 3.2 µM,11.8 µM and > 10 µM,2.34 µM and 4.13 µM,> 65.2,3.41 µM and 4.31 µM,> 70.4,2.08 µM and 3.08 µM,14 µM and > 10 µM,3.01 µM and 2.78 µM,15.5 µM and > 10 µM
CN(CC(=O)Nc1nc2ccccc2[nH]1)S(=O)(=O)c1ccc(Cl)cc1,> 100,> 100,2.92 µM,> 100 µM,> 100 µM,> 100 µM,> 100 µM,> 100 µM,> 100 µM,> 100 µM,> 100 µM,> 100 µM,> 100 µM,> 100,> 100 µM,> 100,–,–,> 100 µM,> 100 µM
O=C(O)c1c(=O)cccc2ssc12,–,–,2.03 µM,3.83 µM,2.22 µM,4.45 µM,2.29 µM,4.67 µM,1.86 µM,3.79 µM,1.81 µM,4.43 µM,2.21 µM,4.87,1.96 µM,4.13,1.67 µM,3.17 µM,1.89 µM,3.64 µM
Cc1ccc(NC(=O)CSc2nnc3n(Cc4ccccc4)c(=O)c4c(C)c(C(N)=O)sc4n23)cc1,20.1,46.1,16 µM,43.3 µM,> 100 µM,> 100 µM,3.44 µM,58.8 µM,2.57 µM,12.2 µM,> 100 µM,> 100 µM,> 100 µM,> 100,–,–,26.7 µM,76.6 µM,> 100 µM,> 100 µM
